This is an account of results in patent publication US8889732B2, “Fused heterocyclic compounds and thrombopoietin receptor activators” (Nissan Chemical Industries, Ltd., priority 2009, dated 2014).

The target in test [1] is T1, human thrombopoietin receptor (c-mpl) (Homo sapiens, UniProt P40238).
T1 construct: expressed in transfected cells
T1 sequence (P40238 26-635): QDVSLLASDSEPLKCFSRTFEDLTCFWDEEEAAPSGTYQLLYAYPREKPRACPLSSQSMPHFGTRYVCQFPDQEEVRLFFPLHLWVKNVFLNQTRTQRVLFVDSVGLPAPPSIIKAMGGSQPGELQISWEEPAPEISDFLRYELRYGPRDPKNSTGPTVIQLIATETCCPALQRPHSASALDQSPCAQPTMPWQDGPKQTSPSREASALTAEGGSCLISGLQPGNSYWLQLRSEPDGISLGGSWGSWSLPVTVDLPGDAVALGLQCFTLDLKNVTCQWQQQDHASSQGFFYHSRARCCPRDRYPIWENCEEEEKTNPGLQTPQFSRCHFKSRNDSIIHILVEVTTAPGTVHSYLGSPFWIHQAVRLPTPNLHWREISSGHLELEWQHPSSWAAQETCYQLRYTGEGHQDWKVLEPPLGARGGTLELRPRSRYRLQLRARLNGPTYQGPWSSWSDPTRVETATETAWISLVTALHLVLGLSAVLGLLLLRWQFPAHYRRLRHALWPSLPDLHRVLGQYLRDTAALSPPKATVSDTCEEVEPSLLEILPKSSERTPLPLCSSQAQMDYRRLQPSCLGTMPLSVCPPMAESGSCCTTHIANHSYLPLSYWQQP
As to the kind of experiment: Stimulation of proliferation of thrombopoietin-dependent cell line UT7/EPO-mpl (WST-8). Format: cell-based. The note with it: for EC50: concentration yielding growth rate corresponding to 50% of growth of UT-7/EPO-mpl in the presence of 10 ng/mL TPO, 4 days incubation, WST-8. How it is done:
The responses of thrombopoietin receptor to the compounds of Synthetic Examples of the present invention were assayed using a human leukemic cell line, UT7/EPO-mpl.
(§1) UT7/EPO-mpl is a stable transformed cell line obtained by introducing into human leukemic cell line UT7/EPO a vector that induces expression of human thrombopoietin receptor (c-mpl) under control of cytomegalovirus immediate-early promoter by the method of Takatoku et al. (J. Biol. Chem., 272:7259-7263 (1997)). […] These two cell lines were subcultured in IMDM (Invitrogen) containing 10% fetal bovine serum (Thermo Electron or BioWest) using a CO2 incubator (5% CO2, 37° C.).
(§2) The subcultured cells described above were washed twice with PBS and suspended in IMDM containing 10% fetal bovine serum at a cell density of 6×10^4 cells/ml. The cell suspension was transferred to a 96-well tissue culture plate (CORNING) in 100-μl aliquots. Then either thrombopoietin (Pepro Tech EC) or the compound of Synthetic Examples dissolved in dimethyl sulfoxide were diluted 83-fold with IMDM containing 10% fetal bovine serum and added to the aforementioned cell suspension in 20-μl aliquots. The cell suspension was incubated in a CO2 incubator (5% CO2, 37° C.) for 4 days. Cell proliferation was assayed using WST-8 reagent (Kishida Chemical Co., Ltd.) according to instructions by the manufacturer. A 10-μl aliquot of 5 mM WST-8 reagent solution was added to each well of the tissue culture plate, and the plate was incubated at 37° C. for 4 hours. The formazan pigment generated was detected by measuring the absorbance at 450 nm with a 96-well microplate reader (Nihon Molecular Devices, Spectramax 190).

For the next test, the system named is UT7/EPO. As to the kind of experiment: Proliferation of mother cell line UT7/EPO (no c-mpl). The note with it: UT7/EPO cells without c-mpl. The class given is cell-based, human. How it is done:
as §1
as §2, with “A 10-μl aliquot of 5 mM WST-8 reagent solution was added to each well of the tissue culture plate, and the plate was incubated at 37° C. for 4 hours.” left out

As a reminder, the EC50 is the concentration needed to bring the measured effect to its halfway point. As for `C/C(=N\NC(=S)Nc1ccc(-c2nnn[nH]2)cc1)c1csc(-c2ccc3c(c2)CCC3)c1O` [compound 64], the EC50 in test [1] is 4.42 nM.

Consider `C/C(=N\NC(=S)Nc1cccc(-c2nnn[nH]2)c1)c1csc(-c2ccc3c(c2)CCO3)c1O` [compound 65], for which the EC50 in test [1] was 5.65 nM.

As for `C/C(=N\NC(=S)Nc1ccc(-c2nnn[nH]2)cc1)c1csc(-c2ccc3c(c2)CCO3)c1O` [compound 66], the EC50 in test [1] was 8.79 nM.

Consider `C/C(=N\NC(=O)c1ccc(-c2nnn[nH]2)cc1)c1csc(-c2ccc3c(c2)CCCC3)c1O` [compound 67], for which, in test [1], the EC50 is 5.23 nM.

Consider `C/C(=N\NC(=O)c1ccc(-c2nnn[nH]2)cc1)c1csc(-c2ccc3c(c2)CCC3)c1O` [compound 68], for which the EC50 in test [1] is 22.5 nM.

Take `C/C(=N\NC(=O)c1ccc(C(=O)NCc2ccc(C(=O)NCCO)cc2)s1)c1csc(-c2ccc3c(c2)CCCC3)c1O` [compound 69]: the EC50 in test [1] is 0.357 nM.

For the molecule `C/C(=N\NC(=O)c1ccc(C(=O)NCc2ccc(C(=O)NCCO)cc2)s1)c1csc(-c2ccc3c(c2)CCC3)c1O` [compound 70], the EC50 in test [1] is 0.382 nM.

`C/C(=N\NC(=O)c1ccc(C(=O)NCc2ccc(C(=O)NCCO)cc2)s1)c1csc(-c2ccc3c(c2)CCO3)c1O` [compound 71]: in test [1], the EC50 is 3.97 nM.

As to “TPO: thrombopoietin (Pepro Tech EC), a cytokine consisting of 332 amino acids”, in test [1] (UT7/EPO-mpl cells), the “Proliferation of thrombopoietin-responsive UT7/EPO-mpl cells” value is “stimulated”. In addition, the “Effect on proliferation of UT7/EPO, the mother cell line” value in the test on UT7/EPO is “no response”.
